From patent US6652890B2, “Tea catechins as cancer specific proliferation inhibitors” (Purdue Research Foundation, priority 1999, dated 2003)
pEC50: −log10 of the molar value. “And” between values parts separate entries of the source, which are not always exact repeats. Identical values can stand only once. Like-named read-outs stand apart in the source and are kept apart here.

Key:
tNOX = assay: Inhibition of tNOX activity of sera pooled from patients with cancer; type: biochemical, human
Method: NADH oxidase activity was determined as the disappearance of NADH measured at 340 nm in a reaction mixture containing 25 mM Tris-Mes buffer (pH 7.2), 1 mM KCN to inhibit low levels of mitochondrial oxidase activity, and […] at 37° C. with stirring. Activity was measured using a Hitachi U3210 or SLM Aminco DW2000 spectrophotometer with continuous recording over two intervals of 5 min each. A millimolar extinction coefficient of 6.22 was used to determine specific activity.
Authentic EGCg (Sigma) was used as the standard.
All chemicals were from Sigma (St. Louis, Mo.) unless otherwise specified. EGF was from mouse, culture grade, from Upstate Biotechnology Inc. (Lake Placid, N.Y.). Tea infusions were prepared by sequential steeping of ca. 2-g bags of tea (Lipton) in 10 ml of water for 10 min each. At the end of the infusion, bags were pressed to remove liquid.

[1] = test system: 4T1 metastatic mouse mammary cancer cells; assay: Killing of 4T1 metastatic mouse mammary cancer cells in culture; type: cell-based; conditions: EGCg 10^−7 M, EC 10^−4 M, alone or combined
[2] = molecular target: T1, tNOX activity of intact 4T1 mouse mammary cells (Mus musculus, UniProt Q8R0Z2); assay: Inhibition of tNOX (NADH oxidase) activity of intact 4T1 cells; type: cell-based
T1 construct: endogenous in cells; host or cells: 4T1 mouse mammary carcinoma cells (intact)
T1 sequence (Q8R0Z2 1-598): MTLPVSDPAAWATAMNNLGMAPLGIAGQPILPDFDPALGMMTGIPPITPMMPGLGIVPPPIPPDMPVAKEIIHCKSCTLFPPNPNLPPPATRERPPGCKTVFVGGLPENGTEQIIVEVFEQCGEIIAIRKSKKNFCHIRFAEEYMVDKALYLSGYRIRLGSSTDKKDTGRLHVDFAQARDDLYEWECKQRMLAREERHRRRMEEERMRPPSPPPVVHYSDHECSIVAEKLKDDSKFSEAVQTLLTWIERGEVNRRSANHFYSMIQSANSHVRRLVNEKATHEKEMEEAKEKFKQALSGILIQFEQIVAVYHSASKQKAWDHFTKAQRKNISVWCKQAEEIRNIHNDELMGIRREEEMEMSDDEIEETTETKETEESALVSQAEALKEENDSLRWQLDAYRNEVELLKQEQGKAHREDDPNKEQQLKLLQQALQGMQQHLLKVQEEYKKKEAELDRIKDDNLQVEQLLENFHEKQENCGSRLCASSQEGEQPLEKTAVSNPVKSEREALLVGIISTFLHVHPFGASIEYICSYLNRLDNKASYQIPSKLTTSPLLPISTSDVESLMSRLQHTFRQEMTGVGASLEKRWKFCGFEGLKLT
Method: A mouse mammary tumor subpopulation line 4T1 arising from a BALB/cf C3H mouse was grown in DME-10, Dulbecco's modified Eagle's medium supplemented with 5% fetal calf serum, 5% newborn calf serum, 1 mM mixed non-essential amino acids, 2 mM L-glutamine, penicillin (100 units/ml), and streptomycin (100 μg/ml) (Miller et al., 1987, Brit. J. Can. 56:561-569 and Miller et al., 1990, Invasion Metastasis 10:101-112).
NADH oxidase activity was determined as the disappearance of NADH measured at 340 nm in a reaction mixture containing 25 mM Tris-Mes buffer (pH 7.2), 1 mM KCN, and 150 μM NADH at 37° C. Activity was measured using a Hitachi U3210 spectrophotometer with stirring and continuous recording over two intervals of 5 min each. A millimolar extinction coefficient of 6.22 was used to determine specific activity.
NADH oxidase activity was determined as the disappearance of NADH measured at 340 nm in a reaction mixture containing 25 mM Tris-Mes buffer (pH 7.2), 1 mM KCN, and 150 μM NADH at 37° C. Activity was measured at 340 nm with reference at 430 nm using an SLM Aminco DW-2000 spectrophotometer (Milton Roy, Rochester, N.Y.) in the dual beam mode of operation with stirring and continuous recording over two intervals of 5 min each. A millimolar extinction coefficient of 6.22 was used to determine specific activity.

Substance: (−) - epigallocatechin gallate [EGCg]
- pEC50 (tNOX): 5.70
- EGCg (tNOX; EGCg content at the EC50): 1 µg/mL
- Increase in cell number cm^−2 over 72 h · 10^2 [1]: 520 cm^−2 · 10^2
- tNOX inhibition by EGCg, EC>90 ([2]; EC concentration 0 M): 10^−7 M
- tNOX inhibition by EGCg, EC>90 ([2]; EC concentration 10^−4 M): 10^−8 M
- tNOX inhibition by EGCg, EC>90 ([2]; EC concentration 10^−6 M): 10^−8 M
- tNOX inhibition by EGCg, EC>90 ([2]; EC concentration 10^−8 M): 10^−7 M
- pEC50 ([2]; in the presence of 10^−4 M EC, read-out: EC50 for inhibition of the drug-responsive component of the plasma membrane NADH oxidase): 8.70
- pEC50 ([2]; read-out: tNOX inhibition by EGCg, EC50, EC concentration 0 M): ~8.00 and 8.00
- pEC50 ([2]; read-out: tNOX inhibition by EGCg, EC50, EC concentration 10^−4 M): 9.30
- pEC50 ([2]; read-out: tNOX inhibition by EGCg, EC50, EC concentration 10^−6 M): 9.00
- pEC50 ([2]; read-out: tNOX inhibition by EGCg, EC50, EC concentration 10^−8 M): 8.00
- Enhancement of the efficacy of EGCg inhibition ([2]; with both 10^−6 and 10^−4 M EC): ≥ 10 fold
